Key:
spring wheat (TRZAS) = test: Greenhouse postemergence safening trial, crop phytotoxicity; type: in vivo, Triticum aestivum; conditions: cloquintocet-mexyl 0 g ai/ha, 20-22 d
Method: (§1) Seeds of the desired test plant species were planted in Sun Gro MetroMix® 306 planting mixture, which typically has a pH of 6.0 to 6.8 and an organic matter content of about 30 percent, in plastic pots with a surface area of 103.2 square centimeters (cm^2). When required to ensure good germination and healthy plants, a fungicide treatment and/or other chemical or physical treatment was applied. The plants were grown for 7-36 days (d) in a greenhouse with an approximate 14-hour (h) photoperiod which was maintained at about 18° C. during the day and 17° C. during the night. Nutrients and water were added on a regular basis and supplemental lighting was provided with overhead metal halide 1000-Watt lamps as necessary. The plants were employed for testing when they reached the second or third true leaf stage.
(§2) Weighed amounts of technical material were dissolved in a volume of 97:3 volume per volume (v/v) acetone/dimethyl sulfoxide (DMSO) to stock solutions. […] Compound requirements are based upon a 12 milliliter (mL) application volume at a rate of 187 liters per hectare (L/ha). Stock solutions of the safeners were prepared following the same procedure. Spray solutions of the safeners and experimental compound mixtures were prepared by adding the stock solutions to the appropriate amount of dilution solution to form a 12 mL spray solution in two-way combinations. Formulated compounds were applied to the plant material with an overhead Mandel track sprayer equipped with 8002E nozzles calibrated to deliver 187 L/ha over an application area of 0.503 square meters (m^2) at a spray height of 18 inches (43 centimeters (cm)) above average plant canopy. Control plants were sprayed in the same manner with the solvent blank.
(§3) The treated plants and control plants were placed in a greenhouse as described above and watered by sub-irrigation to prevent wash-off of the test compounds. After 20-22 d, the condition of the test plants as compared with that of the control plants was determined visually and scored on a scale of 0 to 100 percent where 0 corresponds to no injury and 100 corresponds to complete kill. Colby's equation was used to determine the herbicidal effects expected from the mixtures.

winter wheat (TRZAW) [1] = test: as above; type: in vivo, Triticum aestivum; conditions: herbicide 20 g ae/ha, cloquintocet-mexyl 0 g ai/ha, 20-22 d
Method: as §1, §2, §3

spring barley (HORVS) = test: as above; type: in vivo, Hordeum vulgare; conditions: cloquintocet-mexyl 0 g ai/ha, 20-22 d
Method: as §1, §2, §3

wild buckwheat (POLCO) = test: Greenhouse postemergence trial, weed efficacy; type: in vivo, Polygonum convulvus; conditions: cloquintocet-mexyl 0 g ai/ha, 20-22 d
Method: as §1, §2, §3

kochia (KCHSC) = test: Greenhouse postemergence trial, weed efficacy; type: in vivo, Kochia scoparia; conditions: cloquintocet-mexyl 0 g ai/ha, 20-22 d
Method: as §1, §2, §3

Russian thistle (SASKR) = test: Greenhouse postemergence trial, weed efficacy; type: in vivo, Salsola iberica; conditions: cloquintocet-mexyl 0 g ai/ha, 20-22 d
Method: as §1, §2, §3

wild pansy (VIOTR) = test: Greenhouse postemergence trial, weed efficacy; type: in vivo, Viola tricolor; conditions: cloquintocet-mexyl 0 g ai/ha, 20-22 d
Method: as §1, §2, §3

[2] = test system: bird's-eye speedwell (VERPE); test: Greenhouse postemergence trial, weed efficacy; type: in vivo, Veronica persica; conditions: cloquintocet-mexyl 0 g ai/ha, 20-22 d
Method: as §1, §2, §3

wild mustard (SINAR) = test: Greenhouse postemergence trial, weed efficacy; type: in vivo, Sinapis arvensis; conditions: herbicide 20 g ae/ha, cloquintocet-mexyl 0 g ai/ha, 20-22 d
Method: as §1, §2, §3

shepherd's purse (CAPBP) = test: Greenhouse postemergence trial, weed efficacy; type: in vivo, Capsella bura-pastoris; conditions: herbicide 20 g ae/ha, cloquintocet-mexyl 0 g ai/ha, 20-22 d
Method: as §1, §2, §3

lambsquarters (CHEAL) [3] = test: Greenhouse postemergence trial, weed efficacy; type: in vivo, Chenopodium album; conditions: herbicide 20 g ae/ha, cloquintocet-mexyl 0 g ai/ha, 20-22 d
Method: as §1, §2, §3

winter wheat (TRZAW) [4] = test: Small plot field trial, crop safety; type: in vivo, Triticum aestivum; conditions: 20 g ae/ha herbicide (triisopropanol amine salt), no safener, post-emergence, mean
Method: (§4) The triisopropanol amine salts of herbicides of formulas I-G-A, I-G-B and I-G-C were tested with and without cloquintocet-mexyl in small plot field trials across various ecozones to evaluate the crop safety of these compounds on […] cereals including winter wheat and durum wheat.
(§5) All herbicide treatments were applied post-emergence in the spring to early summer. Herbicides were applied with bicycle or tractor-mounted sprayers using carbon dioxide (CO2) as a propellant. The sprayers delivered a uniform spray pattern that provided thorough coverage of the foliage using a 150 or 200 L/ha spray volume. At the time of herbicide applications, winter wheat was at the two leaf growth stage and durum wheat was at the 2-3 leaf growth stage.
(§6) Phytotoxicity to cereal crops was visually assessed as percent overall injury, compared to an untreated control plot. The overall injury assessments were based on visual ratings of growth inhibition, chlorosis, and delay in maturity. At late ratings (54-57 days after application), percent visual seed head deformity and reduction in seed formation were also assessed. Trials were designed as randomized complete blocks with four replicates. In general, three to four replicates were assessed for each treatment.

Canada thistle (CIRAR) = test: Small plot field trial, weed growth reduction; type: in vivo, Cirsuim arvensis; conditions: 20 g ae/ha herbicide (triisopropanol amine salt), no safener, post-emergence, mean
durum wheat (TRZDU) = test: Small plot field trial, crop safety; type: in vivo, Triticum durum; conditions: 20 g ae/ha herbicide (triisopropanol amine salt), no safener, post-emergence, mean
Method: as §4, §5, §6

lambsquarters (CHEAL) [5] = test: Small plot field trial, weed growth reduction; type: in vivo, Chenopodium album; conditions: 20 g ae/ha herbicide (triisopropanol amine salt), no safener, post-emergence, mean

Compound: CCc1nc(C(=O)O)c(Cl)c(N)c1F [formula I-G-A]
- % visual injury TRZAS Ob (spring wheat (TRZAS); herbicide 4.375 g ae/ha): 0%
- % visual injury TRZAS Ob (spring wheat (TRZAS); herbicide 8.75 g ae/ha): 7%
- % visual injury TRZAS Ob (spring wheat (TRZAS); herbicide 17.5 g ae/ha): 33%
- % visual injury TRZAS Ob (spring wheat (TRZAS); herbicide 35 g ae/ha): 60%
- % visual injury TRZAS Ob (spring wheat (TRZAS); herbicide 70 g ae/ha): 70%
- % visual injury TRZAW Ob (winter wheat (TRZAW) [1]): 25%
- % visual injury HORVS Ob (spring barley (HORVS); herbicide 4.375 g ae/ha): 0%
- % visual injury HORVS Ob (spring barley (HORVS); herbicide 8.75 g ae/ha): 3%
- % visual injury HORVS Ob (spring barley (HORVS); herbicide 17.5 g ae/ha): 10%
- % visual injury HORVS Ob (spring barley (HORVS); herbicide 20 g ae/ha): 13%
- % visual injury HORVS Ob (spring barley (HORVS); herbicide 35 g ae/ha): 37%
- % visual injury HORVS Ob (spring barley (HORVS); herbicide 70 g ae/ha): 47%
- % visual injury POLCO Ob (wild buckwheat (POLCO); herbicide 4.375 g ae/ha): 0%
- % visual injury POLCO Ob (wild buckwheat (POLCO); herbicide 8.75 g ae/ha): 49%
- % visual injury POLCO Ob (wild buckwheat (POLCO); herbicide 17.5 g ae/ha): 40%
- % visual injury POLCO Ob (wild buckwheat (POLCO); herbicide 35 g ae/ha): 75%
- % visual injury POLCO Ob (wild buckwheat (POLCO); herbicide 70 g ae/ha): 96%
- % visual injury KCHSC Ob (kochia (KCHSC); herbicide 4.375 g ae/ha): 13%
- % visual injury KCHSC Ob (kochia (KCHSC); herbicide 8.75 g ae/ha): 23%
- % visual injury KCHSC Ob (kochia (KCHSC); herbicide 17.5 g ae/ha): 32%
- % visual injury KCHSC Ob (kochia (KCHSC); herbicide 35 g ae/ha): 67%
- % visual injury KCHSC Ob (kochia (KCHSC); herbicide 70 g ae/ha): 67%
- % visual injury SASKR Ob (Russian thistle (SASKR); herbicide 4.375 g ae/ha): 67%
- % visual injury SASKR Ob (Russian thistle (SASKR); herbicide 8.75 g ae/ha): 72%
- % visual injury SASKR Ob (Russian thistle (SASKR); herbicide 17.5 g ae/ha): 75%
- % visual injury SASKR Ob (Russian thistle (SASKR); herbicide 35 g ae/ha): 82%
- % visual injury SASKR Ob (Russian thistle (SASKR); herbicide 70 g ae/ha): 82%
- % visual injury VIOTR Ob (wild pansy (VIOTR); herbicide 4.375 g ae/ha): 3%
- % visual injury VIOTR Ob (wild pansy (VIOTR); herbicide 8.75 g ae/ha): 20%
- % visual injury VIOTR Ob (wild pansy (VIOTR); herbicide 17.5 g ae/ha): 37%
- % visual injury VIOTR Ob (wild pansy (VIOTR); herbicide 35 g ae/ha): 65%
- % visual injury VIOTR Ob (wild pansy (VIOTR); herbicide 70 g ae/ha): 82%
- % visual injury VERPE Ob ([2]; herbicide 4.375 g ae/ha): 0%
- % visual injury VERPE Ob ([2]; herbicide 8.75 g ae/ha): 7%
- % visual injury VERPE Ob ([2]; herbicide 17.5 g ae/ha): 23%
- % visual injury VERPE Ob ([2]; herbicide 35 g ae/ha): 50%
- % visual injury VERPE Ob ([2]; herbicide 70 g ae/ha): 77%
- % visual injury SINAR Ob (wild mustard (SINAR)): 97%
- % visual injury CAPBP Ob (shepherd's purse (CAPBP)): 100%
- % visual injury CHEAL Ob (lambsquarters (CHEAL) [3]): 85%
- Instances of TRZAW grain reduction, % of untreated (winter wheat (TRZAW) [4]): 39.9 % of untreated
- TRZAW grain formation reduction, % of untreated (winter wheat (TRZAW) [4]): 27.9 % of untreated
- Growth reduction of CIRAR, % of untreated (Canada thistle (CIRAR)): 95.5 % of untreated
- TRZDU Visual head deformation, % of untreated (durum wheat (TRZDU)): 4.3 % of untreated
- TRZDU Visual injury, % of untreated (durum wheat (TRZDU)): 5.7 % of untreated
- Growth reduction of CHEAL, % of untreated (lambsquarters (CHEAL) [5]): 100 % of untreated

Compound: CC(F)(F)c1nc(C(=O)O)c(Cl)c(N)c1F [formula I-G-C]
- TRZDU Visual head deformation, % of untreated (durum wheat (TRZDU)): 23.6 % of untreated
- TRZDU Visual injury, % of untreated (durum wheat (TRZDU)): 33.6 % of untreated
- Growth reduction of CHEAL, % of untreated (lambsquarters (CHEAL) [5]): 100 % of untreated

Source: patent US20170042152A1, “SAFENED HERBICIDAL COMPOSITIONS COMPRISING PYRIDINE CARBOXYLIC ACIDS” (priority 2015, published 2017)
